Assay results as given in article PMC10537356, “Analyzing the Material Basis of Anti-RSV Efficacy of Lonicerae japonicae Flos Based on the PK-PD Model” (Molecules, 2023).
Read-outs that look alike come from different tables or passages of the source.

Key:
[1] = Pharmacokinetic study of 15 LJF components in plasma of RSV-infected mice after oral LJF extract (UHPLC-QQQ MS); type: in vivo; design: Tmax: unit: h
Procedure: The LJF (12.0 g) were pulverized and soaked in pure water at a solid: liquid ratio of 1:200 and followed by extraction for 30 min. Then, the LJF extract was obtained by filtration, centrifugation (5000 rpm, 10 min) and concentration. Finally, the remains were freeze-dried and stored at −20 °C for subsequent pharmacokinetic assays.
All mice fasted for 1 night after being acclimatized for 7 days (no water restriction) and were randomly separated into 3 groups with 6 mice in each group. One group of healthy mice was used as the normal control group and administered physiological saline; the model group was established by intranasal infusion of RSV (TCID50 = 10^−6, 35 μL/mouse) and administered physiological saline. Members of the drug group were orally administered with LJF extract at the dose of 12 g/kg after infecting RSV. At 0.25 h, 0.5 h, 0.75 h, 1 h, 1.5 h, 2 h, 3 h,4 h, 6 h, 8 h, 10 h, 12 h and 24 h after administration blood samples (approximately 500 μL) were collected into anticoagulant tubes. The blood samples were centrifuged at 3500 rpm, 4 °C for 10 min, and the plasma (upper layer) was separated and stored at −80 °C till analysis. At the same time, the lung tissue was removed, weighed and placed in the EP tube together with five times the weight of the lung tissue in PBS solution containing 1% PMSF. Subsequently, the tissue samples were homogenized using the tissue grinder, and centrifugation to obtain a supernatant for further examination.
An amount of 50 μL IS and 2 mL acetonitrile were mixed into 200 μL plasma, after which the mixture was centrifuged (12,000 rpm, 4 °C, 10 min) and dried with nitrogen. The residue was dissolved in 70% acetonitrile containing 1% formic acid, centrifuged and subsequently the supernatant (2 μL) was injected into the UHPLC-QQQ-MS system.
Agilent 1260 series (Santa Clara, CA, USA) chromatography system was equipped with a solvent degasser, G1311B quaternary pump and G1329B automated injector. The elution was performed on a Halo® C18 column (2.1 × 100 mm, 2.7 μm) at 30 °C, and the mobile phase consisted of 0.05% formic acid in water for solvent A and 0.05% formic acid in acetonitrile for solvent B at a flow rate of 0.3 mL/min. The gradient elution was as follows: 0–30 min at 5–25% B, 30–35 min at 25–55% B, 35–45 min at 55–70% B, 45–55 min at 70–100% B, and 5 μL for analysis.
The MS/MS analysis was performed by Agilent 6470 Triple Quadrupole LC/MS (Santa Clara, CA, USA) with an ESI source. MRM was selected for the detection of the standards and internal standard with a dwell time of 2 ms. The mass spectrometry conditions were optimized as follows: Nebulizer pressure: 50 psi; capillary: positive: 4000 V, negative: 3500 V; cell acceleration voltage: 5 V; gas temp: 350 °C and flow rate at 10 L/min. The acquired data were processed and analyzed by Mass Hunter Workstation quantitative analysis.
Fifteen standards and IS were optimized for mass conditions by the positive and negative ion modes of the chromatographic system, respectively. The pharmacokinetics of 15 chemical constituents in RSV-infected mice were assessed using the UPLC-QQQ-MS/MS method.
The pharmacokinetic parameters, including maximum concentration (Cmax), time to reach Cmax (Tmax), the elimination half-life (T1/2), mean residence time (MRT), and area under the concentration–time curve (AUC) were calculated using non-compartmental analysis by Phoenix 8.1.0.3530.

viruses = system: viruses; design: method as in PMID 19904996; settings: prevents viruses from entering cells; cited from earlier work
RSV = settings: cited from earlier work; for anti-RSV effects: by inhibiting virus–cell fusion in the early stage and cell–cell fusion at the end of the RSV replication cycle
[2] = mouse, plasma, po, 12 g/kg, RSV mice plasma, oral LJF extract 12.0 g/kg, n = 6, read-out: AUC(0–t)
[3] = mouse, plasma, po, 12 g/kg, RSV mice plasma, oral LJF extract 12.0 g/kg, n = 6, read-out: AUC(0–∞)
[4] = mouse, plasma, po, 12 g/kg, RSV mice plasma, oral LJF extract 12.0 g/kg, n = 6, read-out: Cmax
[5] = mouse, plasma, po, 12 g/kg, RSV mice plasma, oral LJF extract 12.0 g/kg, n = 6, read-out: MRT(0–t)
[6] = mouse, plasma, po, 12 g/kg, RSV mice plasma, oral LJF extract 12.0 g/kg, n = 6, read-out: T1/2 (converted)
[7] = mouse, RSV mice plasma, oral LJF extract 12.0 g/kg, n = 6, read-out: Tmax
[8] = RSV mice plasma, oral LJF extract 12.0 g/kg
[9] = mouse, in vivo, RSV mice plasma, oral LJF extract 12.0 g/kg, n = 6, read-out: Tmax
[10] = RSV mice plasma, oral LJF extract 12.0 g/kg, n = 6
[11] = mouse, in vivo, RSV mice plasma, oral LJF extract 12.0 g/kg, n = 6, read-out: AUC(0–t)
[12] = mouse, in vivo, RSV mice plasma, oral LJF extract 12.0 g/kg, n = 6, read-out: AUC(0–∞)
[13] = mouse, in vivo, RSV mice plasma, oral LJF extract 12.0 g/kg, n = 6, read-out: Cmax
[14] = mouse, in vivo, RSV mice plasma, oral LJF extract 12.0 g/kg, n = 6, read-out: MRT(0–t)
[15] = mouse, in vivo, RSV mice plasma, oral LJF extract 12.0 g/kg, n = 6, read-out: T1/2 (converted)

AUC(0-t) [1, 2] | AUC(0-inf) [1, 3] | Cmax [1, 4] | MRT last [1, 5] | half-life [1, 6] | Tmax [1, 7] | shape of the concentration–time curve [1, 8] | Compound | other results
20.9 ± 5.37 ng·h/mL | 21.3 ± 5.32 ng·h/mL | 19.6 ± 6.11 ng/mL | 2.12 ± 0.149 h | 1.96 ± 0.746 h | 2 h | – | O=c1cc(-c2ccc(O)c(O)c2)oc2cc(O)cc(O)c12 [Luteolin] | –
– | 27700 ng·h/mL | 4670 ng/mL | 7.19 ± 0.139 h | 8.14 ± 1.28 h | 2 h | double or multiple peaks | C=C[C@H]1[C@H](O[C@@H]2O[C@H](CO)[C@@H](O)[C@H](O)[C@H]2O)OC=C(C(=O)OC)[C@H]1CC(=O)O [Secoxyloganin] | –
1260 ng·h/mL | 1320 ng·h/mL | 1410 ng/mL | 2.79 ± 0.225 h | 13.5 ± 2.98 h | 2 h | double or multiple peaks | O=C(C=Cc1ccc(O)c(O)c1)OC1C(O)CC(O)(C(=O)O)CC1O (stereo not shown) [Cryptochlorogenic acid] | –
12100 ng·h/mL | 13500 ng·h/mL | 5730 ng/mL | 4.88 ± 0.0632 h | 10.9 ± 2.46 h | 2 h | double or multiple peaks | C=C[C@H]1[C@H](O[C@@H]2O[C@H](CO)[C@@H](O)[C@H](O)[C@H]2O)OC=C2C(=O)OC(O)C[C@H]21 (stereo partly shown) [Secologanic acid] | –
21500 ng·h/mL | 22900 ng·h/mL | 2450 ng/mL | 7.37 ± 0.54 h | 5.15 ± 1.52 h | 1 h | double or multiple peaks | C=C[C@H]1[C@H](O[C@@H]2O[C@H](CO)[C@@H](O)[C@H](O)[C@H]2O)OC=C2C(=O)OCC[C@]21O [Swertiamarin] | –
– | – | – | – | – | – | – | C=C[C@H]1[C@H](O[C@@H]2O[C@H](CO)[C@@H](O)[C@H](O)[C@H]2O)OC=C2C(=O)OCC[C@H]21 [Sweroside] | Tmax ([1]; mouse, in vivo, po, 12 g/kg): 2 h; AUC(0-t) ([1]; mouse, in vivo, po, 12 g/kg, AUC(0–t)): 14200 ng·h/mL; AUC(0-inf) ([1]; mouse, in vivo, po, 12 g/kg, AUC(0–∞)): 17200 ng·h/mL; Cmax ([1]; mouse, in vivo, po, 12 g/kg, Cmax): 4630 ng/mL; MRT last ([1]; mouse, in vivo, po, 12 g/kg, MRT(0–t)): 7.17 ± 0.274 h; half-life ([1]; mouse, in vivo, po, 12 g/kg, T1/2): 10.1 ± 2.25 h
– | – | – | – | – | – | double or multiple peaks | C[C@@H]1O[C@@H](OC[C@H]2O[C@@H](Oc3c(-c4ccc(O)c(O)c4)oc4cc(O)cc(O)c4c3=O)[C@H](O)[C@@H](O)[C@@H]2O)[C@H](O)[C@H](O)[C@H]1O [Rutin] | time of first peak of plasma concentration [1, 8]: 30 min; time of second peak of plasma concentration [1, 8]: 2 h; AUC(0-t) ([1]; mouse, in vivo, po, 12 g/kg, RSV mice plasma, oral LJF extract 12.0 g/kg, n = 6, read-out: AUC(0–t)): 31.3 ± 4.34 ng·h/mL; AUC(0-inf) ([1]; mouse, in vivo, po, 12 g/kg, RSV mice plasma, oral LJF extract 12.0 g/kg, n = 6, read-out: AUC(0–∞)): 34.3 ± 3.33 ng·h/mL; Cmax ([1]; mouse, in vivo, po, 12 g/kg, RSV mice plasma, oral LJF extract 12.0 g/kg, n = 6, read-out: Cmax): 30 ± 2.54 ng/mL; MRT last ([1]; mouse, in vivo, po, 12 g/kg, RSV mice plasma, oral LJF extract 12.0 g/kg, n = 6, read-out: MRT(0–t)): 1.51 ± 0.0291 h; half-life ([1]; mouse, in vivo, po, 12 g/kg, RSV mice plasma, oral LJF extract 12.0 g/kg, n = 6, read-out: T1/2 (converted)): 2.03 ± 1.1 h; Tmax [1, 9]: 0.5 h
5190 ng·h/mL | 5900 ng·h/mL | 5600 ng/mL | 2.95 ± 0.0749 h | 26.1 ± 9.42 h | 2 h | double or multiple peaks | O=C(/C=C/c1ccc(O)c(O)c1)O[C@@H]1C[C@](O)(C(=O)O)C[C@@H](O)[C@H]1O [Chlorogenic acid] | inhibition of RSV infection (RSV; modulating TLR3, TBK1, IRF3 expression, decreasing IFN-β): could inhibit RSV infection
2920 ng·h/mL | 3280 ng·h/mL | 779 ± 19.2 ng/mL | 5.92 ± 0.239 h | 7.92 ± 1.1 h | 2 h | double or multiple peaks | O=C(O)/C=C/c1ccc(O)c(O)c1 [Caffeic acid] | –
1070 ng·h/mL | 1450 ng·h/mL | 822 ± 53.9 ng/mL | 4.64 ± 0.289 h | 26.6 ± 4.52 h | 2 h | double or multiple peaks | O=C(C=Cc1ccc(O)c(O)c1)OC1CC(O)(C(=O)O)CC(OC(=O)C=Cc2ccc(O)c(O)c2)C1O (stereo not shown) [Isochlorogenic acid A] | –

Compound | AUC(0-t) [1, 2] | AUC(0-inf) [1, 3] | Cmax [1, 4] | MRT last [1, 5] | half-life [1, 6] | Tmax [1, 7] | shape of the concentration–time curve [1, 8] | other results
C[C@@H]1[C@H]2[C@H](O[C@@H]3O[C@H](CO)[C@@H](O)[C@H](O)[C@H]3O)OC=C(C(=O)O)[C@H]2C[C@@H]1O [Loganic acid] | 84.9 ± 12.8 ng·h/mL | 99.3 ± 18.4 ng·h/mL | 87.6 ± 10.9 ng/mL | 2.29 ± 0.337 h | 2.33 ± 0.429 h | 0.5 h | – | antiviral activity (viruses): significant antiviral activity
O=C(C=Cc1ccc(O)c(O)c1)OC1CC(O)(C(=O)O)CC(O)C1OC(=O)C=Cc1ccc(O)c(O)c1 (stereo not shown) [Isochlorogenic acid B] | – | – | – | – | – | – | double or multiple peaks | anti-RSV effects (RSV): specific anti-RSV effects; AUC(0–t) [1, 10]: 1100 ng·h/mL; AUC(0–∞) [1, 10]: 1740 ng·h/mL; MRT(0–t) [1, 10]: 7.35 ± 0.170 h; T1/2 [1, 10]: 24.4 ± 2.72 h; Tmax [1, 10]: 2.00 ± 0.00 h; Cmax ([1]; RSV mice plasma, oral LJF extract 12.0 g/kg, n = 6, read-out: Cmax): 415 ± 4.69 ng/mL
O=c1c(O[C@@H]2O[C@H](CO)[C@@H](O)[C@H](O)[C@H]2O)c(-c2ccc(O)c(O)c2)oc2cc(O)cc(O)c12 [Isoquercitrin] | – | – | – | – | – | – | double or multiple peaks | AUC(0-t) [1, 11]: 26.5 ± 1.19 ng·h/mL; AUC(0-inf) [1, 12]: 39.6 ± 8.47 ng·h/mL; Cmax [1, 13]: 26.5 ± 1.16 ng/mL; MRT last [1, 14]: 1.5 ± 0.0366 h; half-life [1, 15]: 2.95 ± 1.72 h; Tmax [1, 9]: 0.5 h
O=c1cc(-c2ccc(O)c(O)c2)oc2cc(O[C@@H]3O[C@H](CO)[C@@H](O)[C@H](O)[C@H]3O)cc(O)c12 [Luteoloside] | – | – | – | – | – | – | double or multiple peaks | time of first peak of plasma concentration [1, 8]: 30 min; time of second peak of plasma concentration [1, 8]: 2 h; AUC(0-t) [1, 11]: 15.8 ± 0.991 ng·h/mL; AUC(0-inf) [1, 12]: 15.9 ± 1.01 ng·h/mL; Cmax [1, 13]: 16.5 ± 1.97 ng/mL; MRT last [1, 14]: 1.5 ± 0.0928 h; half-life [1, 15]: 0.343 ± 0.0915 h; Tmax [1, 9]: 0.5 h
O=C(C=Cc1ccc(O)c(O)c1)OC1CC(O)(C(=O)O)CC(O)C1OC(=O)C=Cc1ccc(O)c(O)c1 (stereo not shown) [Isochlorogenic acid C] | 926 ± 39 ng·h/mL | 1450 ng·h/mL | 560 ± 20.7 ng/mL | 6.39 ± 0.337 h | 26.9 ± 3.16 h | 2 h | double or multiple peaks | anti-RSV effects (RSV): specific anti-RSV effects
